What was measured:
[1] = test system: Klebsiella pneumoniae (DSM 681); assay type: cell-based; settings: DSM 681, 24 h
Excerpt: Effect of peptide P18 (P18 sequence H-KWKLFKKIPKFLHLAKKF-NH2 (Bachem AG, Switzerland)) on Klebsiella pneumoniae (DSM 681) to study.
TSBY growth medium (Becton, Dickinson and Company, Sparks, USA) 17 g of pancreatin-degraded caseine 3 g of pancreatin-degraded soya 2.5 g of dextrose 5 g of sodium chloride 2.5 g of dipotassium phosphate 3 g of yeast extract (Becton, Dickinson and Company, Sparks, USA) make up to 1 liter, set pH 7
A shake culture containing TSBY medium was inoculated with K. pneumoniae and incubated with shaking at 37° C. and 200 rpm overnight.
The suspension was adjusted to an optical density measured at 600 nm of 0.1. A 96-well microtiter plate was filled with 95 μl per well of the K. pneumoniae suspension. Then a dilution series of the peptide with a final concentration in the wells between 0 and 1000 ppm was added. To this end, 5 μl per well of peptide solution with a concentration in the range from 0 ppm to 20 000 ppm were added to the K. pneumoniae suspension, so as to obtain final concentrations of the peptide in the wells in the range between 0 ppm and 1000 ppm.
The microtiter plate was incubated at 37° C., 600 rpm. The bacterial growth was assessed by measuring the optical density at 620 nm and observing it over 24 hours. The experiments were conducted at least in double determination and were independently repeated at least once.

[2] = test system: S. epidermidis (DSM 1798); test: P18 in pharmaceutical base formulation (CFU); assay type: cell-based, Staphylococcus epidermidis; settings: 10 000 ppm in the formulation, mixed 1:9 with suspension
Protocol: (§1) The aim of the experiment was to study the effect of a pharmaceutical base formulation containing the P18 peptide ingredient (P18 sequence H-KWKLFKKIPKFLHLAKKF-NH2 (Bachem AG, Switzerland)) on further fungi and bacteria. For this purpose, the following base formulation was used: […]
(§2) 1% hydroxycellulose 10% propylene glycol made up with water.
(§3) Based on the base formulation, formulations containing 10 000 ppm of P18 peptide were prepared from a 20% concentrate solution.
(§4) The effect of the formulations on S. epidermidis (DSM 1798), M. furfur (DSM 6170) and T. rubrum (DSM 21146) was studied.
TSBY growth medium for S. epidermidis Ready-made TSB medium (Becton, Dickinson and Company, Sparks, USA) 17 g of pancreatin-degraded casein 3 g of pancreatin-degraded soya 2.5 g of dextrose 5 g of sodium chloride 2.5 g of dipotassium phosphate 3 g of yeast extract (Becton, Dickinson and Company, Sparks, USA) make up to 1 liter, set pH 7 […]
(§5) 1.5 ml reaction vessels were each filled with 1 ml of medium and inoculated with the fungal or bacterial suspension from the overnight culture such that the resulting suspensions at the start of the experiment had been adjusted to an optical density, measured at 600 nm, of 0.1. […] After incubation over 24 hours, the colonies on the plates were counted.

M. furfur (DSM 6170) = test: P18 in pharmaceutical base formulation (CFU); assay type: cell-based, Malassezia furfur; settings: for Colony forming units after the incubation time specified: 10 000 ppm in the formulation, mixed 1:9 with suspension
Protocol: as §1, §2, §3, §4
M472 growth medium according to DSMZ for M. furfur 40 g of malt extract (Becton, Dickinson and Company, Sparks, USA) 20 g of ox bile (Merck, Darmstadt, Germany)
For M. furfur, 5 ml of medium were inoculated with the microorganism and incubated at 30° C. and 200 rpm overnight.
1.5 ml reaction vessels were each filled with 1 ml of medium and inoculated with the fungal or bacterial suspension from the overnight culture such that the resulting suspensions at the start of the experiment had been adjusted to an optical density, measured at 600 nm, of 0.1. The resulting suspension was mixed with the formulations in a ratio of 1:9 (formulation: microbial suspension). 1 μl of the culture was diluted with 20 μl of medium after 5 minutes and 60 minutes and then plated out. After incubation over 24 hours, the colonies on the plates were counted.

T. rubrum (DSM 21146) = test: P18 in pharmaceutical base formulation (CFU); assay type: cell-based, Trichophyton rubrum; settings: 10 000 ppm in the formulation, mixed 1:9 with suspension
Protocol: as §1, §2, §3, §4
MEP growth medium according to DSMZ for T. rubrum 30 g of malt extract (Becton, Dickinson and Company, Sparks, USA) 3 g of soya peptone (Becton, Dickinson and Company, Sparks, USA) make up to 1 liter, set pH 5.6.
For T. rubrum, an agar plate on which it had grown was rinsed with 5 ml of medium. 10 μl of the resulting suspension were added to 1 ml of MEP medium and used directly in the experiment.
as §5

M. furfur DSM 6170 = test: Comparison of the efficacy of P18 and AFPP in a shampoo formulation (CFU); assay type: cell-based, Malassezia furfur; settings: 1:10 with culture medium
Protocol: In order to study the efficacy of AFPP compared to P18 (SEQ ID NO. 3; sequence: KWKLFKKIPKFLHLAKKF-NH2 (Bachem AG, Switzerland)) in a shampoo formulation, the experiment described in Example 24 was repeated with a shampoo formulation.
Both peptides were present as 2% (w/w) solutions in phosphate buffer (10 mM sodium phosphate, pH 7.5, 100 mM NaCl).
Peptide solution with a final concentration of 0.1% and 0.2% was added to the shampoo formulation. The resulting formulations were stirred over 16 hours in order to obtain homogeneous solutions. The same procedure was repeated with equivalent volumes of the phosphate buffer in order to rule out any influence of the phosphate buffer on the test results.
The growth test was effected as follows: a shake culture containing M472 Pityrosporum medium was inoculated with M. furfur DSM 6170 (DSMZ) and incubated with shaking at 30° C. and 200 rpm overnight.
For each test mixture, a 1.5 ml reaction vessel was filled with Pityrosporum medium and inoculated with the M. furfur overnight culture to give a start OD of 0.1, measured at 600 nm.
The growth of the following test mixtures was monitored: • M. furfur suspension and addition of phosphate buffer in shampoo formulation in an equivalent amount to the volumes which were added with peptide-shampoo solution (in order to rule out any influence of the phosphate buffer on the effect of the active peptides at concentrations in the shampoo formulation of 0.1% or 0.2%) • M. furfur suspension and shampoo formulation with a P18 concentration of 0.1% • M. furfur suspension and shampoo formulation with a P18 concentration of 0.2% • M. furfur suspension and shampoo formulation with an AFPP concentration of 0.1% • M. furfur suspension and shampoo formulation with a final AFPP concentration of 0.2%
The ratio of the shampoo formulation to the M. furfur culture medium was 1:10 in all test mixtures (shampoo formulation: M. furfur culture medium). The reaction volume was 1 ml.
The growth of M. furfur in the test mixtures was observed over a period of 20 minutes. For this purpose, the mixtures were diluted in M472 medium in a ratio of 1:10 after 10 minutes and 20 minutes, and then 10 μl were plated out. The CFU (colony forming units) were determined by counting after incubation at 30° C. for 6 days.
The experiments were effected in double determination and were independently repeated at least once.

## H-KWKLFKKIPKFLHLAKKF-NH2 [P18, H-KWKLFKKIPKFLHLAKKF-NH2]
[1]
  Minimum inhibitory concentration: 125 ppm
[2]; 5 minutes
  Colony forming units after the incubation time specified: 790 ± 393 CFU
[2]; 60 minutes
  Colony forming units after the incubation time specified: 513 ± 20 CFU
M. furfur (DSM 6170); 5 minutes
  Colony forming units after the incubation time specified: 671 ± 13 CFU
M. furfur (DSM 6170); 60 minutes
  Colony forming units after the incubation time specified: 2 ± 2 CFU
M. furfur (DSM 6170); treatment with a formulation which comprised P18, highest reduction of Example 22
  Reduction in the cell count: > 300 fold
T. rubrum (DSM 21146); 5 minutes
  Colony forming units after the incubation time specified: 25 ± 8 CFU
T. rubrum (DSM 21146); 60 minutes
  Colony forming units after the incubation time specified: 6 ± 1 CFU
M. furfur DSM 6170; 0.1% in the shampoo formulation, 10 minutes
  Colony forming units after the incubation time specified: 80 ± 10 CFU
M. furfur DSM 6170; 0.1% in the shampoo formulation, 20 minutes
  Colony forming units after the incubation time specified: 38 ± 21 CFU
M. furfur DSM 6170; 0.2% in the shampoo formulation, 10 minutes
  Colony forming units after the incubation time specified: 21 ± 17 CFU
M. furfur DSM 6170; 0.2% in the shampoo formulation, 20 minutes
  Colony forming units after the incubation time specified: 3 ± 1 CFU
